Series [1] addresses T1, Human Neuropeptide Y2 Receptor (Homo sapiens, UniProt P49146).
T1 construct: purchased CHEMICON HTS066M
T1 sequence (P49146 1-381): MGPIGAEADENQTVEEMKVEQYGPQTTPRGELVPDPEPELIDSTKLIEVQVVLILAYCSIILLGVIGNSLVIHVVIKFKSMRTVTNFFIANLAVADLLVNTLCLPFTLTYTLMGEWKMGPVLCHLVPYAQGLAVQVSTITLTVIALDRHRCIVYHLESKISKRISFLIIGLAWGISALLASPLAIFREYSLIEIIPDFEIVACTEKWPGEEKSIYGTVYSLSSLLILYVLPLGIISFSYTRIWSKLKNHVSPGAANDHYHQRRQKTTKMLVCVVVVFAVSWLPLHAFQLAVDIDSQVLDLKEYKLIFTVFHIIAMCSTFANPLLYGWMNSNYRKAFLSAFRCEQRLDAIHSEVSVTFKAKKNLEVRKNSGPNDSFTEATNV
The series is described as follows: Radioligand binding competition assay (RLB). The following applies: Table 3, 125I-PYY(1-36) competition; read-out: Ki. Put shortly: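 Filtration binding assay on human Y2 receptor membrane preparation, 0.5 μg protein per well, in 50 mM HEPES pH 7.4 containing 5 mM MgCl2, 1 mM CaCl2 and 0.2% ovalbumin. Plates shake 2 h at room temperature before harvest and scintillation counting.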

Series [2] can be described thus: Solubility determination. The following applies: for Sol6: pH 6; for Sol7: pH 7. The method, boiled down: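 Solubility is derived from the ratio of reversed-phase peak areas, filtered sample over a control dissolved at 1 mg/ml in 50% acetonitrile. Peptides are agitated for 2 hours at room temperature in 0.1 M sodium diphosphate at pH 6.4 or 7.0, aiming at 10 mg/ml.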

Some results are limits rather than exact numbers.

As a reminder, the Ki is a measure of affinity in units of concentration, obtained from inhibition or displacement.

On to `CC(C)CC(=O)N[C@@H](C)C(=O)N1CCC[C@H]1C(=O)N[C@@H](CCC(=O)O)C(=O)N[C@@H](CCCCNC(=O)CCCCCNC(=O)CC[C@H](NC(=O)CCCCCCCCCCCCCCCCC(=O)O)C(=O)O)C(=O)N1CCC[C@H]1C(=O)N[C@@H](CCC(=O)O)C(=O)N[C@@H](CCC(=O)O)C(=O)N[C@@H](CC(=O)O)C(=O)N[C@@H](C)C(=O)N[C@H](C(=O)N1CCC[C@H]1C(=O)N[C@@H](CCC(=O)O)C(=O)N[C@@H](CCC(=O)O)C(=O)N[C@@H](CC(C)C)C(=O)N[C@@H](CCC(N)=O)C(=O)N[C@@H](CC(C)C)C(=O)N[C@@H](Cc1ccc(O)cc1)C(=O)N[C@@H](Cc1ccc(O)cc1)C(=O)N[C@H](C(=O)N[C@@H](CO)C(=O)N[C@@H](CC(C)C)C(=O)N[C@@H](CCCNC(=N)N)C(=O)N[C@@H](Cc1c[nH]cn1)C(=O)N[C@@H](Cc1ccc(O)cc1)C(=O)N[C@@H](Cc1ccc(O)cc1)C(=O)N[C@@H](CC(N)=O)C(=O)N[C@@H](Cc1c[nH]c2ccccc12)C(=O)N[C@@H](CC(C)C)C(=O)N[C@H](C(=O)N[C@@H](CCCNC(=N)N)C(=O)N[C@@H](CCC(N)=O)C(=O)N[C@@H](CCCNC(=N)N)C(=O)N[C@@H](Cc1ccc(O)cc1)C(N)=O)[C@@H](C)O)C(C)C)[C@@H](C)O` [Compound 130, N{alpha-4}-(3-methylbutanoyl)-N{epsilon-7}-(6-[(4S)-4-carboxy-4-(17-carboxyheptadecanamido)butanamido]hexanoyl)-[4A,7K,9E,13T,18Q,19L,22V,28Y,30W,31L]-hPYY(4-36)], for which, in series [1], the Ki is 9.36 nM. Moreover, in series [2], the “Sol6” value is 9.9 mg/mL and the “Sol7” value stood at 10.0 mg/mL.
In the case of `CC[C@H](C)[C@H](NC(=O)[C@H](CCC(=O)O)NC(=O)[C@H](CCC(=O)O)NC(=O)[C@@H]1CCCN1C(=O)[C@H](CCC(=O)O)NC(=O)[C@H](C)NC(=O)[C@H](CC(=O)O)NC(=O)[C@H](C)NC(=O)[C@H](CCC(=O)O)NC(=O)[C@@H]1CCCN1C(=O)[C@H](CCCCNC(=O)CCCCCNC(=O)CC[C@H](NC(=O)CCCCCCCCCCCCCCCCC(=O)O)C(=O)O)NC(=O)[C@H](CCC(=O)O)NC(=O)[C@@H]1CCCN1C(=O)[C@H](C)NC(=O)CC(C)C)C(=O)N[C@@H](CCC(N)=O)C(=O)N[C@@H](CCCNC(=N)N)C(=O)N[C@@H](Cc1ccc(O)cc1)C(=O)N[C@@H](Cc1ccc(O)cc1)C(=O)N[C@H](C(=O)N[C@@H](C)C(=O)N[C@@H](CC(C)C)C(=O)N[C@@H](CCCNC(=N)N)C(=O)N[C@@H](Cc1c[nH]cn1)C(=O)N[C@@H](Cc1ccc(O)cc1)C(=O)N[C@@H](Cc1ccc(O)cc1)C(=O)N[C@@H](CC(N)=O)C(=O)N[C@@H](Cc1c[nH]c2ccccc12)C(=O)N[C@@H](CC(C)C)C(=O)N[C@H](C(=O)N[C@@H](CCCNC(=N)N)C(=O)N[C@@H](CCC(N)=O)C(=O)N[C@@H](CCCNC(=N)N)C(=O)N[C@@H](Cc1ccc(O)cc1)C(N)=O)[C@@H](C)O)C(C)C` [Compound 131, N{alpha-4}-(3-methylbutanoyl)-N{epsilon-7}-(6-[(4S)-4-carboxy-4-(17-carboxyheptadecanamido)butanamido]hexanoyl)-[4A,7K,9E,10A,13E,17I,18Q,22V,23A,28Y,30W,31L]-hPYY(4-36)], the Ki in series [1] was determined as 1.54 nM. In series [2], the “Sol6” value worked out at 10.0 mg/mL and the “Sol7” value is over 10.0 mg/mL.
Turning to `CC(C)CC(=O)N[C@@H](C)C(=O)N1CCC[C@H]1C(=O)N[C@@H](CCC(=O)O)C(=O)N[C@@H](CCCCNC(=O)CCCCCNC(=O)CC[C@H](NC(=O)CCCCCCCCCCCCCCCCC(=O)O)C(=O)O)C(=O)N1CCC[C@H]1C(=O)N[C@@H](CCC(=O)O)C(=O)N[C@@H](C)C(=O)N[C@@H](CC(=O)O)C(=O)N[C@@H](C)C(=O)N[C@H](C(=O)N1CCC[C@H]1C(=O)N[C@@H](CCC(=O)O)C(=O)N[C@@H](CCC(=O)O)C(=O)N[C@@H](CC(C)C)C(=O)N[C@@H](CCC(N)=O)C(=O)N[C@@H](CCCNC(=N)N)C(=O)N[C@@H](Cc1ccc(O)cc1)C(=O)N[C@@H](Cc1ccc(O)cc1)C(=O)N[C@H](C(=O)N[C@@H](CO)C(=O)N[C@@H](CC(C)C)C(=O)N[C@@H](CCCNC(=N)N)C(=O)N[C@@H](Cc1c[nH]cn1)C(=O)N[C@@H](Cc1ccc(O)cc1)C(=O)N[C@@H](Cc1ccc(O)cc1)C(=O)N[C@@H](CC(N)=O)C(=O)N[C@@H](Cc1c[nH]c2ccccc12)C(=O)N[C@@H](CC(C)C)C(=O)N[C@H](C(=O)N[C@@H](CCCNC(=N)N)C(=O)N[C@@H](CCC(N)=O)C(=O)N[C@@H](CCCNC(=N)N)C(=O)N[C@@H](Cc1ccc(O)cc1)C(N)=O)[C@@H](C)O)C(C)C)[C@@H](C)O` [Compound 132, N{alpha-4}-(3-methylbutanoyl)-N{epsilon-7}-(6-[(4S)-4-carboxy-4-(17-carboxyheptadecanamido)butanamido]hexanoyl)-[4A,7K,9E,10A,13T,18Q,22V,28Y,30W,31L]-hPYY(4-36)], the Ki in series [1] was determined as 2.75 nM. In addition, in series [2], the “Sol6” value is 8.7 mg/mL and the “Sol7” value is 9.3 mg/mL.
The corresponding values for `CC(C)CC(=O)N[C@@H](C)C(=O)N1CCC[C@H]1C(=O)N[C@@H](C)C(=O)N[C@@H](CCCCNC(=O)CCCCCNC(=O)CC[C@H](NC(=O)CCCCCCCCCCCCCCCCC(=O)O)C(=O)O)C(=O)N1CCC[C@H]1C(=O)N[C@@H](CCC(=O)O)C(=O)N[C@@H](CCC(=O)O)C(=O)N[C@@H](CC(=O)O)C(=O)N[C@@H](C)C(=O)N[C@@H](CCC(=O)O)C(=O)N1CCC[C@H]1C(=O)N[C@@H](CCC(=O)O)C(=O)N[C@@H](CCC(=O)O)C(=O)N[C@@H](CC(C)C)C(=O)N[C@@H](CCC(N)=O)C(=O)N[C@@H](CCCNC(=N)N)C(=O)N[C@@H](Cc1ccc(O)cc1)C(=O)N[C@@H](Cc1ccc(O)cc1)C(=O)N[C@H](C(=O)N[C@@H](CO)C(=O)N[C@@H](CC(C)C)C(=O)N[C@@H](CCCNC(=N)N)C(=O)N[C@@H](Cc1c[nH]cn1)C(=O)N[C@@H](Cc1ccc(O)cc1)C(=O)N[C@@H](Cc1ccc(O)cc1)C(=O)N[C@@H](CC(N)=O)C(=O)N[C@@H](Cc1c[nH]c2ccccc12)C(=O)N[C@@H](CC(C)C)C(=O)N[C@H](C(=O)N[C@@H](CCCNC(=N)N)C(=O)N[C@@H](CCC(N)=O)C(=O)N[C@@H](CCCNC(=N)N)C(=O)N[C@@H](Cc1ccc(O)cc1)C(N)=O)[C@@H](C)O)C(C)C` [Compound 133, N{alpha-4}-(3-methylbutanoyl)-N{epsilon-7}-(6-[(4S)-4-carboxy-4-(17-carboxyheptadecanamido)butanamido]hexanoyl)-[4A,6A,7K,9E,13E,18Q,22V,28Y,30W,31L]-hPYY(4-36)] are 4.68 nM, 9.6 mg/mL and 9.7 mg/mL.
The corresponding values for `CC(C)CC(=O)N[C@@H](C)C(=O)N1CCC[C@H]1C(=O)N[C@@H](CCC(=O)O)C(=O)N[C@@H](CCCCNC(=O)CCCCCNC(=O)CC[C@H](NC(=O)CCCCCCCCCCCCCCCCC(=O)O)C(=O)O)C(=O)N1CCC[C@H]1C(=O)N[C@@H](CCC(=O)O)C(=O)N[C@@H](CCC(=O)O)C(=O)N[C@@H](CC(=O)O)C(=O)N[C@@H](C)C(=O)N[C@H](C(=O)N1CCC[C@H]1C(=O)N[C@@H](CCC(=O)O)C(=O)N[C@@H](CCC(=O)O)C(=O)N[C@@H](CCC(N)=O)C(=O)N[C@@H](CCC(N)=O)C(=O)N[C@@H](CCCNC(=N)N)C(=O)N[C@@H](Cc1ccc(O)cc1)C(=O)N[C@@H](Cc1ccc(O)cc1)C(=O)N[C@H](C(=O)N[C@@H](CO)C(=O)N[C@@H](CC(C)C)C(=O)N[C@@H](CCCNC(=N)N)C(=O)N[C@@H](Cc1c[nH]cn1)C(=O)N[C@@H](Cc1ccc(O)cc1)C(=O)N[C@@H](Cc1ccc(O)cc1)C(=O)N[C@@H](CC(N)=O)C(=O)N[C@@H](Cc1c[nH]c2ccccc12)C(=O)N[C@@H](CC(C)C)C(=O)N[C@H](C(=O)N[C@@H](CCCNC(=N)N)C(=O)N[C@@H](CCC(N)=O)C(=O)N[C@@H](CCCNC(=N)N)C(=O)N[C@@H](Cc1ccc(O)cc1)C(N)=O)[C@@H](C)O)C(C)C)[C@@H](C)O` [Compound 134, N{alpha-4}-(3-methylbutanoyl)-N{epsilon-7}-(6-[(4S)-4-carboxy-4-(17-carboxyheptadecanamido)butanamido]hexanoyl)-[4A,7K,9E,13T,17Q,18Q,22V,28Y,30W,31L]-hPYY(4-36)] are 2.8 nM, 10.0 mg/mL and 10.0 mg/mL.
